Drawing on patent publication US10294229B2, “Heteroaryl substituted aminopyridine compounds” (BRISTOL-MYERS SQUIBB COMPANY, priority 2015, dated 2019), this text covers IC50 and EC50 for 19 compounds.

One assay deals with IRAK4 (Homo sapiens (Human), UniProt Q9NWZ3). The assay can be described thus: IRAK4 Inhibition Assay. The assay is classed as biochemical. As to conditions: ATP 500 μM; IRAK4 0.6 nM. Summed up:
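Mobility-shift kinase assay: 0.6 nM IRAK4, 500 μM ATP, 1.5 μM fluorescent peptide, 60 min, room temperature. Percent inhibition was normalised between enzyme-free and DMSO-only wells.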

For assay [1], the system named is Human whole blood stimulated with a TLR2 agonist (lipoteichoic acid), IL-6 levels. Description: IRAK4 Whole Blood Assay. In kind it is cell-based. Conditions: Homo sapiens, lipoteichoic acid 10 μg/mL. As for the experimental part: Human whole blood containing the anti-coagulant ACD-A was plated in 384-well plate (25 μL/well) and incubated with compounds for 60 minutes at 37° C. in a 5% CO2 incubator. The blood was stimulated with a TLR2 agonist, 10 μg/mL final concentration of lipoteichoic acid (Invivogen, San Diego, Calif.) in 25 μL RPMI (Gibco) for 5 hours in a 5% CO2 incubator. At the end of the incubation, plates were centrifuged at 2300 rpm for 5 minutes. Supernatants were harvested and analyzed for IL-6 levels by Flow Cytometry beads assay (BD Biosciences, San Jose, Calif.).

Chain of IRAK4 (Q9NWZ3 whole entry, species assumed): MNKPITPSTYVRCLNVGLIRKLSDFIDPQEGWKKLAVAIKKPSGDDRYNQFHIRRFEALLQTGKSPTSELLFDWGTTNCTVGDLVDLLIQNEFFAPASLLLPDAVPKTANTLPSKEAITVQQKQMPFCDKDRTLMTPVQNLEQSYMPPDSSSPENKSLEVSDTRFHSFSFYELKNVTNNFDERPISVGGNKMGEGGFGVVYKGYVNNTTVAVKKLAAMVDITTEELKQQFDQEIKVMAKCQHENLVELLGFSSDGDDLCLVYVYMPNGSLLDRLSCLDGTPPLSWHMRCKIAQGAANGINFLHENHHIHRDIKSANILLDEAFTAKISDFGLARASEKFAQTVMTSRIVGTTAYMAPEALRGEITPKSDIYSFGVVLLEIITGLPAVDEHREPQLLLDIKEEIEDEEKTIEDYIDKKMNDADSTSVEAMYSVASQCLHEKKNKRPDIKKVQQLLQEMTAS

Regarding `CCn1cc(-c2cnc(-n3ncc4cc(Cl)cnc43)cc2NC(C)C)nn1` [Example 39, 2-(5-chloro-1H-pyrazolo[3,4-b]pyridin-1-yl)-5-(1-ethyl-1H-1,2,3-triazol-4-yl)-N-isopropylpyridin-4-amine], the IC50 at IRAK4 was found to be 14 nM. A half-maximal response in assay [1] (EC50) required 4300 nM.
As to `CC(C)Nc1cc(-n2ncc3cc(C#N)cnc32)ncc1-c1cn(CCCF)nn1` [Example 44, 1-(5-(1-(3-fluoropropyl)-1H-1,2,3-triazol-4-yl)-4-(isopropylamino)pyridin-2-yl)-1H-pyrazolo [3,4-b]pyridine-5-carbonitrile], on IRAK4, the IC50 turned out to be 7 nM. This compound had an EC50 in assay [1] of 630 nM.
Turning to `CC(C)Nc1cc(-n2ncc3cc(C#N)c(N)nc32)ncc1-c1cn(CCCF)nn1` [Example 46, 6-amino-1-(5-(1-(3-fluoropropyl)-1H-1,2,3-triazol-4-yl)-4-(isopropylamino)pyridin-2-yl)-1H-pyrazolo[3,4-b]pyridine-5-carbonitrile], the IC50 at IRAK4 is 14 nM. In assay [1], this compound displayed an EC50 of 490 nM.
Take `CC(C)Nc1cc(-n2cnc3cc(C#N)cnc32)ncc1-c1cn(CCc2ccccc2)nn1` [Example 57, 3-(4-(isopropylamino)-5-(1-phenethyl-1H-1,2,3-triazol-4-yl)pyridin-2-yl)-3H-imidazo[4,5-b]pyridine-6-carbonitrile]: the IC50 on IRAK4 stood at 3 nM. The compound further yielded an EC50 in assay [1] of 610 nM.
As for `CC(C)Nc1cc(-n2ncc3cc(C#N)cnc32)ncc1-c1cn(C[C@H](C)O)nn1` [Example 65, (S)-1-(5-(1-(2-hydroxypropyl)-1H-1,2,3-triazol-4-yl)-4-(isopropylamino)pyridin-2-yl)-1H-pyrazolo[3,4-b]pyridine-5-carbonitrile], on IRAK4, the IC50 was 9 nM. The compound also displayed an EC50 in assay [1] of 420 nM.
On to `CC(C)Nc1cc(-n2cnc3cc(C#N)cnc32)ncc1-c1cn(C[C@H](C)O)nn1` [Example 69, (S)-3-(5-(1-(2-hydroxypropyl)-1H-1,2,3-triazol-4-yl)-4-(isopropylamino)pyridin-2-yl)-3H-imidazo[4,5-b]pyridine-6-carbonitrile], for which, at IRAK4, the IC50 stood at 10 nM. The EC50 in assay [1] was determined as 1370 nM.
For `CC(C)Nc1cc(-n2ncc3cc(C#N)c(N)nc32)ncc1-c1cn(C[C@H](C)O)nn1` [Example 70, (S)-6-amino-1-(5-(1-(2-hydroxypropyl)-1H-1,2,3-triazol-4-yl)-4-(isopropylamino)pyridin-2-yl)-1H-pyrazolo[3,4-b]pyridine-5-carbonitrile], in that order: 5 nM and 3960 nM.
Consider `CC(C)Nc1cc(-n2ncc3cc(C#N)cnc32)ncc1-c1cn(C[C@@H](O)c2ccccc2)nn1` [Example 84, (S)-1-(5-(1-(2-hydroxy-2-phenylethyl)-1H-1,2,3-triazol-4-yl)-4-(isopropylamino)pyridin-2-yl)-1H-pyrazolo[3,4-b]pyridine-5-carbonitrile], for which, on IRAK4, the concentration for half-maximal inhibition (IC50) stood at 5 nM. In assay [1], this compound displayed an EC50 of 530 nM.
Consider `CC(C)Nc1cc(-n2ncc3cc(C#N)cnc32)ncc1-c1cn([C@@H](CO)c2ccccc2)nn1` [Example 86, (R)-1-(5-(1-(2-hydroxy-1-phenylethyl)-1H-1,2,3-triazol-4-yl)-4-(isopropylamino)pyridin-2-yl)-1H-pyrazolo[3,4-b]pyridine-5-carbonitrile], for which the IC50 at IRAK4 is 18 nM. In assay [1], this compound came in with an EC50 of 1770 nM.
On to `CC(C)Nc1cc(-n2ncc3cc(C#N)cnc32)ncc1-c1cn([C@H](CO)c2ccccc2)nn1` [Example 87, (S)-1-(5-(1-(2-hydroxy-1-phenylethyl)-1H-1,2,3-triazol-4-yl)-4-(isopropylamino)pyridin-2-yl)-1H-pyrazolo[3,4-b]pyridine-5-carbonitrile], for which, on IRAK4, the IC50 was 9 nM. Also, the midpoint of the response in assay [1], the EC50, lay at 4530 nM.
For the compound `CC(C)Nc1cc(-n2ncc3cc(C#N)cnc32)ncc1-c1cn(C[C@H]2CCCN2C(=O)OC(C)(C)C)nn1` [Example 99, (R)-tert-butyl 2-((4-(6-(5-cyano-1H-pyrazolo[3,4-b]pyridin-1-yl)-4-(isopropylamino)pyridin-3-yl)-1H-1,2,3-triazol-1-yl)methyl)pyrrolidine-1-carboxylate], the IC50 on IRAK4 was 8 nM. This compound also showed an EC50 in assay [1] of 3370 nM.
On to `CC(C)Nc1cc(-n2ncc3cc(C#N)cnc32)ncc1-c1cn(C2CN(C(=O)OC(C)(C)C)C2)nn1` [Example 113, tert-butyl 3-(4-(6-(5-cyano-1H-pyrazolo [3,4-b]pyridin-1-yl)-4-(isopropylamino)pyridin-3-yl)-1H-1,2,3-triazol-1-yl)azetidine-1-carboxylate], for which the IC50 on IRAK4 was found to be 13 nM. For the same compound, the EC50 in assay [1] is 1860 nM.
As to `CC(C)Nc1cc(-n2ncc3cc(C#N)cnc32)ncc1-c1cn(CCCCCN)nn1` [Example 114, 1-(5-(1-(5-aminopentyl)-1H-1,2,3-triazol-4-yl)-4-(isopropylamino)pyridin-2-yl)-1H-pyrazolo[3,4-b]pyridine-5-carbonitrile], the IC50 on IRAK4 stood at 3 nM. In assay [1], it took 870 nM to reach a half-maximal effect (EC50).
For `CC(C)Nc1cc(-n2ncc3cc(C#N)cnc32)ncc1-c1cn(CCS(C)(=O)=O)nn1` [Example 116, 1-(4-(isopropylamino)-5-(1-(2-(methylsulfonyl)ethyl)-1H-1,2,3-triazol-4-yl)pyridin-2-yl)-1H-pyrazolo[3,4-b]pyridine-5-carbonitrile], in that order: 3 nM and 210 nM.
As for `CC(C)Nc1cc(-n2ncc3cc(C#N)cnc32)ncc1-c1cn(CCc2ccccn2)nn1` [Example 118, 1-(4-(isopropylamino)-5-(1-(2-(pyridin-2-yl)ethyl)-1H-1,2,3-triazol-4-yl)pyridin-2-yl)-1H-pyrazolo[3,4-b]pyridine-5-carbonitrile], the IC50 at IRAK4 was found to be 3 nM. In addition, the EC50 in assay [1] was 1090 nM.
Take `COCCn1cc(-c2cnc(-n3ncc4cc(C#N)cnc43)cc2NC(C)C)nn1` [Example 121, 1-(4-(isopropylamino)-5-(1-(2-methoxyethyl)-1H-1,2,3-triazol-4-yl)pyridin-2-yl)-1H-pyrazolo[3,4-b]pyridine-5-carbonitrile]: the IC50 at IRAK4 is 6 nM. For the same compound, in assay [1], a half-maximal effect (EC50) was put at 1740 nM.
Turning to `CC(C)Nc1cc(-n2ncc3cc(C#N)cnc32)ncc1-c1cn(CCCCCO)nn1` [Example 125, 1-(5-(1-(5-hydroxypentyl)-1H-1,2,3-triazol-4-yl)-4-(isopropylamino)pyridin-2-yl)-1H-pyrazolo[3,4-b]pyridine-5-carbonitrile], the IC50 on IRAK4 was determined as 3 nM. Further, the EC50 in assay [1] came to 1760 nM.
The corresponding values for `CC(C)Nc1cc(-n2ncc3cc(C#N)cnc32)ncc1-c1cn(CCN(C)C)nn1` [Example 126, 1-(5-(1-(2-(dimethylamino)ethyl)-1H-1,2,3-triazol-4-yl)-4-(isopropylamino)pyridin-2-yl)-1H-pyrazolo[3,4-b]pyridine-5-carbonitrile] are 4 nM and 390 nM.
For `CC(C)Nc1cc(-n2ncc3cc(C#N)cnc32)ncc1-c1cn(CCCN2CCCC2)nn1` [Example 127, 1-(4-(isopropylamino)-5-(1-(3-(pyrrolidin-1-yl)propyl)-1H-1,2,3-triazol-4-yl)pyridin-2-yl)-1H-pyrazolo[3,4-b]pyridine-5-carbonitrile], in that order: 10 nM and 2950 nM.

For orientation: IC50 means the concentration at which inhibition is half-maximal. A word on the EC50: it is the concentration giving half of the maximal effect. High values mean weaker potency, low ones greater potency.
